Data as given in US9724388B2, “FGF-18 compound dosing regimen” (MERCK PATENT GMBH, priority 2014, dated 2017).
Like-named read-outs stand apart in the source and are kept apart here.

Assays:
[1] = tested on: medial meniscal tear in the right knee joint; assay type: in vivo, rat; settings: for swelling scores vs vehicle controls: days 24-29, 31, and 36-43
Experimental: Male Lewis rats underwent surgery to induce a medial meniscal tear in the right knee joint. Animals were dosed i.a. with FGF-18 (10 μg/joint) on days 21, 28, and 35 and dosed orally with diclofenac (either 1 mg/kg or 3 mg/kg) or vehicle on days 21-23, 28-30, and 35-37, then terminated on day 42 or day 63. Serum was collected and evaluated for alpha 2 macroglobulin (α2MG) levels on days −3, 21, 42, and 63. α2MG is an inflammation serum biomarker. The link between α2MG and inflammation has already been shown (Kuribayashi et al., 2013).

[2] = tested on: Primary articular porcine chondrocytes; experiment: Porcine chondrocyte proliferation with or without IL1α challenge; assay type: cell-based, pig; settings: for restoration of rhFGF-18 proliferative activity in IL1α-challenged chondrocytes: anakinra 100 ng/mL with rhFGF-18 100 ng/mL, IL1α 10 ng/mL, direct and delayed treatments
Experimental: Porcine chondrocytes were isolated from the cartilage of a femoral head of a pig hip (pigs were approximately one year old). After dissection of the joints, the cartilage was harvested and digested 45 minutes with collagenase 0.25% (1/10 dilution of collagenase NBG4 2.5% in HAM's F12) at room temperature. The loosened cells were discarded and the cartilage further digested overnight with collagenase 0.1% (1/25 dilution of collagenase NBG4 2.5% in HAM's F12) at 37° C. to extract the chondrocytes. For this study, the chondrocytes were cultured in monolayer.
Primary articular porcine chondrocytes were stimulated or not with 10 ng/mL IL1α and were either treated immediately or 6 hours later with anakinra 100 ng/mL and/or trFGF-18 100 ng/mL. Each condition was performed in 4 or 6-plicates. As a control, cells were also cultured with anakinra alone, trFGF-18 alone or in the absence of any treatment (medium).
Pre-culture: After cell isolation porcine chondrocytes were inoculated at 20,000 cells/cm^2 and cultivated for one week in complete HAM's F12. Cells were then harvested with accutase, counted and used as described below.
For cells treated directly with anakinra: Chondrocytes were inoculated in a 24-well plate at 15,000 cells/well in 0.5 mL of complete HAM's F12. Then 0.25 mL of trFGF-18 400 ng/mL and/or 0.25 mL of anakinra 400 ng/mL were added to the cells. In the challenged samples, 10 μL of IL1α at 1,000 ng/mL were also added to the cells. trFGF-18, anakinra and IL1α were all diluted in complete HAM's F12. The final volume in the culture well was adjusted at 1 mL with complete HAM's F12. Final concentrations were 10 ng/mL IL1α, 100 ng/mL trFGF-18 and 100 ng/mL anakinra and the total culture time was eight days. A complete medium change was performed after four days. N=4.
For cells treated with anakinra and trFGF-18 6 hours after the IL1α challenge: Chondrocytes were inoculated in a 24-well plate at 15,000 cells/well in 1 mL of complete HAM's F12 containing or not containing IL1α 10 ng/mL. After 6 hours the medium was removed and replaced with 0.25 mL trFGF-18 400 ng/mL and/or 0.25 mL of anakinra 400 ng/mL. In the challenged samples, 0.25 mL of IL1α at 40 ng/mL was also added to the cells. trFGF-18, anakinra and IL1α were all diluted in complete HAM's F12. The final volume in the culture well was adjusted at 1 mL with complete HAM's F12. Final concentrations were 10 ng/mL IL1α, 100 ng/mL trFGF-18 and 100 ng/mL anakinra and the total culture time was eight days. A complete medium change was performed after four days. N=6.
After eight days of culture, cells were harvested with accutase and resulting cell suspensions were analyzed for cell concentration and cell viability with a ViCell™ cell analyzer (from Beckman Coulter). Statistical analysis consisted in a 1-way ANOVA followed by a Dunnett post-hoc analysis.

OA symptoms = settings: Chevalier et al., 2009, cited from earlier work
RA patients = settings: cited from earlier work

| Molecule | knee caliper measurements ([1]; diclofenac 1 mg/kg orally with FGF-18, any other time point) | knee caliper measurements ([1]; diclofenac 1 mg/kg orally with FGF-18, day 42) | swelling scores vs vehicle controls ([1]; diclofenac 1 mg/kg orally with FGF-18) | knee caliper measurements ([1]; diclofenac 3 mg/kg orally with FGF-18, any other time point) | knee caliper measurements ([1]; diclofenac 3 mg/kg orally with FGF-18, day 42) | swelling scores vs vehicle controls ([1]; diclofenac 3 mg/kg orally with FGF-18) | knee swelling (clinical observations and caliper measurements) ([1]; diclofenac 1 or 3 mg/kg with FGF-18) | restoration of rhFGF-18 proliferative activity in IL1α-challenged chondrocytes [2] | restoration of rhFGF-18 proliferative activity in IL1α-challenged chondrocytes ([2]; listed as Anakinra) | effect on chondrocyte proliferation ([2]; anakinra alone, 100 ng/mL) | improvements in OA symptoms compared with placebo (OA symptoms) | pain versus placebo in OA (OA symptoms; anakinra 150 mg) | joint damage in RA patients (RA patients; Bresnihan, 2002, St. Clair) | pain in RA patients (RA patients; Mertens et al., 2009) |
| --- | --- | --- | --- | --- | --- | --- | --- | --- | --- | --- | --- | --- | --- | --- |
| O=C(O)Cc1ccccc1Nc1c(Cl)cccc1Cl [diclofenac, 2-(2,6-dichloranilino) phenylacetic acid] | not significantly affected | significantly reduced | significantly reduced | not significantly affected | significantly reduced | significantly reduced | significantly reduced |  |  |  |  |  |  |  |
| anakinra: recombinant, nonglycosylated form of human interleukin-1 receptor antagonist (IL-1Ra), SEQ ID NO: 3 |  |  |  |  |  |  |  | fully block | fully restore | no effect | not significantly associated | a tendency toward pain reduction | reduction in frequency and severity of joint damage | pain reduction |
